“Also recorded” adds a separate entry of the source. Where a SMILES comes first, the peptide text is derived from it. The star is where a group is joined. Cbz = O=C(OCc1ccccc1)*

The record followed here is paper PMC8848508 (ACS Central Science, 2022).

In this assay the target is SARS-CoV-2 M^Pro (Severe acute respiratory syndrome coronavirus 2, UniProt P0DTD1, Q3569G). The format is cell-based.

Take `CCC[C@H](NC(=O)[C@@H]1[C@H]2CCC[C@H]2CN1C(=O)[C@@H](NC(=O)[C@@H](NC(=O)c1cnccn1)C1CCCCC1)C(C)(C)C)C(=O)C(=O)NC1CC1` [telaprevir]: the “cellular inhibition of M^Pro (in words)” value was “close to undetectable”.

Consider `CCN(CCO)CCCC(C)Nc1ccnc2cc(Cl)ccc12` (stereo not drawn) [hydroxychloroquine], for which the “cellular inhibition of M^Pro (in words)” value is “relatively weak to undetectable; also recorded: close to undetectable”.

For `CCN(CC)CCCC(C)Nc1ccnc2cc(Cl)ccc12` (stereo not drawn) [chloroquine], the “cellular inhibition of M^Pro (in words)” value is on record as “relatively weak to undetectable; also recorded: close to undetectable”.

As to `CC(C)COCC(CN(Cc1ccccc1)c1ccccc1)N1CCCC1` (stereo not drawn) [bepridil], the “cellular inhibition of M^Pro (in words)” value is “relatively weak to undetectable; also recorded: very weak inhibition; also recorded: close to undetectable”.

Consider `CC(C)(C)NC(=O)N[C@H](C(=O)N1C[C@H]2[C@@H]([C@H]1C(=O)NC(CC1CCC1)C(=O)C(N)=O)C2(C)C)C(C)(C)C` (stereo partly drawn) [boceprevir], for which the “cellular inhibition of M^Pro (in words)” value is “close to undetectable; also recorded: very weak”.

In the case of `O=c1c2ccccc2[se]n1-c1ccccc1` [ebselen], the “cellular inhibition of M^Pro (in words)” value is given as “relatively weak to undetectable”.

Take `CCCCCCNC(=O)n1cc(F)c(=O)[nH]c1=O` [carmofur]: the “cellular inhibition of M^Pro (in words)” value is given as “undetectable”.

As to `CCCC[C@@H](C=O)NC(=O)[C@H](CC(C)C)NC(=O)OCc1ccccc1` [calpeptin], the “cellular inhibition of M^Pro (in words)” value was “close to undetectable”.

As to `CC(C)C[C@@H](C=O)NC(=O)[C@H](CC(C)C)NC(=O)[C@H](CC(C)C)NC(=O)OCc1ccccc1` [MG-132] (Cbz-Leu-Leu-Leu-aldehyde), the “cellular inhibition of M^Pro (in words)” value is recorded as “close to undetectable”.
